Measured values published in ChEMBL document CHEMBL1201862, “PubChem BioAssay data set” (2004).
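Growth conditions: 96-well plates. Treatment: test compound, 48 hours, 5 concentrations. Analysis: linear interpolation between bracketing concentrations; unreached endpoints set to highest concentration. GI50 is the concentration that inhibits growth by half.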 The source made the active and inactive calls. No stated cut-off is given here; in the data, active = GI50 up to about 1.1 µM and inactive = higher.

Columns and labels:
Experiment in all cases: NCI anticancer screen, dose series, 48 h
786-0 = system: 786-0
A549 = system: A549
ACHN = system: ACHN
BT-549 = system: BT-549
CAKI-1 = system: CAKI-1
CCRF-CEM = system: CCRF-CEM
COLO 205 = system: COLO 205
DU-145 = system: DU-145
EKVX = system: EKVX
HCT-116 = system: HCT-116
HCT-15 = system: HCT-15
HL-60 = system: HL-60
HOP-62 = system: HOP-62
HOP-92 = system: HOP-92
HT-29 = system: HT-29
Hs-578T = system: Hs-578T
IGROV-1 = system: IGROV-1
K562 = system: K562
KM12 = system: KM12
LOX IMVI = system: LOX IMVI
M14 = system: M14
MCF7 = system: MCF7
MDA-MB-231 = system: MDA-MB-231
MDA-MB-435 = system: MDA-MB-435
MDA-N = system: MDA-N
MOLT-4 = system: MOLT-4
Malme-3M = system: Malme-3M
NCI-H226 = system: NCI-H226
NCI-H23 = system: NCI-H23
NCI-H460 = system: NCI-H460
NCI-H522 = system: NCI-H522
NCI/ADR-RES = system: NCI/ADR-RES
OVCAR-3 = system: OVCAR-3
OVCAR-4 = system: OVCAR-4
OVCAR-5 = system: OVCAR-5
OVCAR-8 = system: OVCAR-8
PC-3 = system: PC-3
RPMI-8226 = system: RPMI-8226
RXF 393 = system: RXF 393
SF-268 = system: SF-268
SF-295 = system: SF-295
SF-539 = system: SF-539
SK-MEL-2 = system: SK-MEL-2
SK-MEL-5 = system: SK-MEL-5
SK-OV-3 = system: SK-OV-3
SN12C = system: SN12C
SNB-19 = system: SNB-19
SR = system: SR
SW-620 = system: SW-620
T47D = system: T47D
TK-10 = system: TK-10
U-251 = system: U-251
UACC-257 = system: UACC-257
UACC-62 = system: UACC-62
UO-31 = system: UO-31
A498 = system: A498
SK-MEL-28 = system: SK-MEL-28
HCC 2998 = system: HCC 2998
SNB-75 = system: SNB-75

Measured: GI50

CC(=O)N1N=C(c2cc(C)ccc2O)CC1c1cccc(Cl)c1 (configuration not stated)
inactive: 786-0 21.7 µM | A549 11.8 µM | ACHN 16.1 µM | BT-549 33.3 µM | CAKI-1 27.3 µM | CCRF-CEM 13.4 µM | COLO 205 6.93 µM | DU-145 51.9 µM | EKVX 24.1 µM | HCT-116 13.8 µM | HL-60 8.53 µM | HOP-62 22.3 µM | HOP-92 3.17 µM | HT-29 6.97 µM | Hs-578T 12.9 µM | IGROV-1 2.6 µM | K562 4.05 µM | KM12 5.7 µM | LOX IMVI 12.5 µM | M14 15.1 µM | MCF7 5.79 µM | MDA-MB-231 17.5 µM | MDA-MB-435 1.6 µM | MDA-N 2.12 µM | MOLT-4 4.26 µM | Malme-3M 6.93 µM | NCI-H226 16.1 µM | NCI-H23 13.5 µM | NCI-H460 8.85 µM | NCI-H522 3.07 µM | NCI/ADR-RES 6.03 µM | OVCAR-3 32.1 µM | OVCAR-4 13.7 µM | OVCAR-5 30.1 µM | OVCAR-8 27.4 µM | PC-3 3.35 µM | RPMI-8226 6.24 µM | RXF 393 11.3 µM | SF-268 8.55 µM | SF-295 10.9 µM | SF-539 19.2 µM | SK-MEL-2 10.3 µM | SK-MEL-5 11.7 µM | SK-OV-3 9.1 µM | SN12C 17.5 µM | SNB-19 6.08 µM | SR 1.83 µM | SW-620 7.74 µM | T47D 23.1 µM | TK-10 17.4 µM | U-251 13.8 µM | UACC-257 14.2 µM | UACC-62 7.6 µM | UO-31 17.4 µM
1.95 µM: HCT-15

N#CC(C(=O)O)C(c1c(Cl)cccc1Cl)C(C#N)C(=O)O (configuration not stated)
> 100 µM: HCT-15
inactive: 786-0 > 100 µM | A498 > 100 µM | A549 > 100 µM | ACHN > 100 µM | BT-549 > 100 µM | CAKI-1 > 100 µM | COLO 205 > 100 µM | DU-145 > 100 µM | EKVX > 100 µM | HCT-116 > 100 µM | HL-60 > 100 µM | HOP-62 > 100 µM | HOP-92 > 100 µM | HT-29 > 100 µM | Hs-578T > 100 µM | IGROV-1 > 100 µM | K562 > 100 µM | KM12 > 100 µM | LOX IMVI > 100 µM | M14 > 100 µM | MCF7 > 100 µM | MDA-MB-231 > 100 µM | MDA-MB-435 > 100 µM | MDA-N > 100 µM | MOLT-4 > 100 µM | Malme-3M > 100 µM | NCI-H226 > 100 µM | NCI-H23 > 100 µM | NCI-H460 > 100 µM | NCI-H522 > 100 µM | NCI/ADR-RES > 100 µM | OVCAR-3 > 100 µM | OVCAR-4 > 100 µM | OVCAR-5 > 100 µM | OVCAR-8 > 100 µM | PC-3 > 100 µM | RPMI-8226 > 100 µM | SF-268 > 100 µM | SF-295 > 100 µM | SF-539 > 100 µM | SK-MEL-28 > 100 µM | SK-MEL-2 > 100 µM | SK-MEL-5 > 100 µM | SK-OV-3 > 100 µM | SN12C > 100 µM | SNB-19 > 100 µM | SR > 100 µM | SW-620 > 100 µM | T47D > 100 µM | TK-10 > 100 µM | U-251 > 100 µM | UACC-257 > 100 µM | UACC-62 > 100 µM | UO-31 > 100 µM

CC(C)=CCc1c(O)c(CC2=C(O)C(CC=C(C)C)(C(=O)C(C)C)C(O)=C(C)C2=O)c(O)c(C(=O)C(C)C)c1O (configuration not stated)
inactive: 786-0 10.7 µM | A498 9.57 µM | A549 14.1 µM | ACHN 11.8 µM | BT-549 11.6 µM | CAKI-1 17.5 µM | CCRF-CEM 5.78 µM | COLO 205 13 µM | DU-145 18.9 µM | EKVX 17.7 µM | HCC 2998 7.8 µM | HCT-116 3.05 µM | HL-60 39 µM | HOP-62 11.3 µM | HOP-92 5.07 µM | HT-29 3.88 µM | Hs-578T 9.89 µM | IGROV-1 10.9 µM | K562 8.61 µM | KM12 7.53 µM | LOX IMVI 9.48 µM | M14 11.4 µM | MCF7 11.7 µM | MDA-MB-231 17 µM | MDA-MB-435 16.2 µM | MDA-N 14.3 µM | MOLT-4 2.31 µM | Malme-3M 8.02 µM | NCI-H226 7.93 µM | NCI-H23 8.43 µM | NCI-H522 6.55 µM | NCI/ADR-RES 10.6 µM | OVCAR-3 12.2 µM | OVCAR-4 15.8 µM | OVCAR-5 11.9 µM | OVCAR-8 12 µM | PC-3 5.66 µM | RPMI-8226 6.46 µM | RXF 393 12.1 µM | SF-268 9.86 µM | SF-295 9.33 µM | SF-539 13.8 µM | SK-MEL-28 13.2 µM | SK-MEL-2 11.5 µM | SK-MEL-5 7.87 µM | SK-OV-3 18.8 µM | SN12C 18.8 µM | SNB-19 7.73 µM | SNB-75 13.6 µM | SW-620 24 µM | T47D 8.45 µM | TK-10 13.2 µM | U-251 12.4 µM | UACC-257 11.5 µM | UACC-62 7.98 µM | UO-31 7.59 µM
11.7 µM: HCT-15
